Assay results reported in US20250296959A1, “B7-H3 TARGETING PEPTIDES AND CONSTRUCTS THEREOF” (Mariana Oncology Inc., priority 2024, published 2025).
pKd: −log10 of the molar value. Where two headings read alike, the source gives them in different places. Starred links: 1 amine or outer side, 2 acyl side, 3 side chain; linkers in the order of their positions; H or OH if unused. Positions of bridges follow the written chain, without caps; N, C: chain ends. Non-standard residues stand in square brackets, D forms with d. Residues, ends and D or L forms follow the SMILES beside them. Groups on a side chain read outwards from the residue. *: point of attachment. X2 = O=C(O)CN1CCN(CC(=O)O)CCN(CC(=O)NCCOCCOCCOCCOCC(=O)*)CCN(CC(=O)O)CC1; Ala(1-CH2CO2H-4-piperidyl) = N[C@@H](CC1CCN(CC(=O)O)CC1)C(=O)O; Ala(piperidin-4-yl) = O=C([C@H](CC1CCN([*:3])CC1)N[*:1])[*:2]; DOTA = O=C(O)CN1CCN(CC(=O)O)CCN(CC(=O)*)CCN(CC(=O)O)CC1; Trp(5-F) = N[C@@H](Cc1c[nH]c2ccc(F)cc12)C(=O)O; Ala(4-THP) = N[C@@H](CC1CCOCC1)C(=O)O; Val(3-OH) = CC(C)(O)[C@H](N)C(=O)O; Aad = N[C@@H](CCCC(=O)O)C(=O)O; PEG4 = NCCOCCOCCOCCOCCC(=O)O; Tle = CC(C)(C)[C@H](N)C(=O)O; hLeu = CC(C)CC[C@H](N)C(=O)O; Dab = NCC[C@H](N)C(=O)O

Columns and labels:
[1] = tested on: Calu-6 cell line; assay: Cell associated (bound) fraction of [177Lu]Lu-labeled peptide in Calu-6 cells; assay type: cell-based, Human; conditions: 1 hour, 37° C.
In short: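 Peptide conjugate was labelled with [177Lu]LuCl3 in ammonium acetate pH ~5 at 80 °C for 17-20 min, with purity checked by RP-HPLC. Calu-6 suspensions (5 million cells/mL in 1% PBSA) were incubated with 0.8 μCi for 1 h at 37 °C. Cell pellets were gamma-counted after two cold PBS/BSA washes, giving the bound fraction against the unbound supernatant plus washes.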

[2] = tested on: Calu-6 cell line; assay: Net internalization of [177Lu]Lu-labeled peptide in Calu-6 cells; assay type: cell-based, Human; conditions: 1 hour, 37° C., glycine pH 2.5 acid wash
In short: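 Peptide conjugate labeled with [177Lu]LuCl3 at pH ~5, 80 °C, 17–20 min, and purity checked by RP-HPLC. B7-H3-expressing human Calu-6 lung cancer cells at 5 million cells/mL in 1% PBSA. Internalized fraction: counts left after two 3 min 50 mM glycine pH 2.5 washes and NaOH lysis, gamma counted against bound fraction.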

[3] = molecular target: T1, human 4lg B7-H3 (Homo sapiens, UniProt Q5ZPR3); assay: Affinity determination by surface plasmon resonance (SPR) to 4Ig B7-H3; conditions: 4Ig B7-H3
T1 sequence (Q5ZPR3 29-534): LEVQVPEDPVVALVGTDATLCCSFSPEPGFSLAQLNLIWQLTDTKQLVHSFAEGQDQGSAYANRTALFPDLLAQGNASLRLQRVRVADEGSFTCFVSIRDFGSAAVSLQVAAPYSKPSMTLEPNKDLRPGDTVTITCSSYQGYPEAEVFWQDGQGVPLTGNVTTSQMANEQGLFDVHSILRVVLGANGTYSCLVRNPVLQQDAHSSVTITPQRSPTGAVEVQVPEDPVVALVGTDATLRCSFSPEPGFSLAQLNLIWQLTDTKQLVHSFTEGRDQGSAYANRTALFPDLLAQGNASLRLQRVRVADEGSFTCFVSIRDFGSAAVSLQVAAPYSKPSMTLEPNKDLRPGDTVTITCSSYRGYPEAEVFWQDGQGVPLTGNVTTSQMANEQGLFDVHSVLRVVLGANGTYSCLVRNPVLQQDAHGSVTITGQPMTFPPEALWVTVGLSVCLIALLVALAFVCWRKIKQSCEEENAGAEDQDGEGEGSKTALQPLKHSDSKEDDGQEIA

[4] = read-out: SPR KD—37° C., 37° C. flow cell temperature
[5] = SPR KD—37° C., 37° C. flow cell temperature

| SMILES | % cell associated fraction [1] | % net internalization [2] | pKd [3, 4] | pKd [3, 5] | pKd ([3]; read-out: SPR KD—25° C., 25° C. flow cell temperature) | pKd ([3]; SPR KD—25° C., 25° C. flow cell temperature) |
| --- | --- | --- | --- | --- | --- | --- |
| CC(=O)N[C@@H](CCC(C)C)C(=O)N[C@@H](Cc1ccc(O)cc1)C(=O)N[C@H]1CSSC[C@@H](C(=O)N[C@@H](Cc2c[nH]c3ccc(F)cc23)C(=O)N[C@@H](Cc2ccccc2)C(=O)N[C@H](C(=O)N[C@H](C)C(N)=O)C(C)(C)O)NC(=O)[C@H](Cc2ccc(O)cc2)NC(=O)[C@H](C(C)C)NC(=O)[C@H](CC(=O)O)NC(=O)[C@H](CC2CCOCC2)NC(=O)[C@H](CC2CCN(C(=O)CCOCCOCCOCCOCCNC(=O)CN3CCN(CC(=O)O)CCN(CC(=O)O)CCN(CC(=O)O)CC3)CC2)NC(=O)CNC(=O)[C@H](C(C)(C)C)NC1=O [compound 384, Ac-hLeu-Y-C-Tbg-G-Pip(PEG4-DOTA)Ala-ThpA-D-V-Y-C-5FW-F-hydroxyVal-dAla-CONH2] (Ac-[hLeu]YC[Tle]G[Ala(piperidin-4-yl)]([PEG4-DOTA])[Ala(4-THP)]DVYC[Trp(5-F)]F[Val(3-OH)][dA]-NH2; disulfide 3-11) | B (25<%≤50) | A (%≤25) | > 9.00 | – | – | – |
| CC[C@H](C)[C@@H]1NC(=O)[C@@H](NC(=O)[C@H](Cc2ccc(O)cc2)NC(=O)[C@H](CCC(C)C)NC(C)=O)CSSC[C@@H](C(=O)N[C@@H](Cc2c[nH]c3ccc(F)cc23)C(=O)N[C@@H](Cc2ccccc2)C(=O)N[C@H](C(=O)N[C@H](CCCCNC(=O)CN2CCN(CC(=O)O)CCN(CC(=O)O)CCN(CC(=O)O)CC2)C(=O)O)C(C)(C)O)NC(=O)[C@H](Cc2ccc(O)cc2)NC(=O)[C@H](C(C)C)NC(=O)[C@H](CC(=O)O)NC(=O)[C@H](CC2CCOCC2)NC(=O)[C@H](CC2CCN(CC(=O)O)CC2)NC(=O)CNC1=O [compound 318, Ac-hLeu-Y-C-Ile-G-[Pip(CH2CO2H)Ala]-ThpA-D-V-Y-C-5FW-F-hydroxyVal-dLys(DOTA)-COOH] (Ac-[hLeu]YCIG[Ala(1-CH2CO2H-4-piperidyl)][Ala(4-THP)]DVYC[Trp(5-F)]F[Val(3-OH)][dK](DOTA)-OH; disulfide 3-11) | B (25<%≤50) | A (%≤25) | 8.00 to 9.00 | – | – | – |
| CC(=O)N[C@@H](CCC(C)C)C(=O)N[C@@H](Cc1ccc(O)cc1)C(=O)N[C@H]1CSSC[C@@H](C(=O)N[C@@H](Cc2c[nH]c3ccc(F)cc23)C(=O)N[C@@H](Cc2ccccc2)C(=O)N[C@H](C(=O)N[C@H](CCCCNC(=O)CN2CCN(CC(=O)O)CCN(CC(=O)O)CCN(CC(=O)O)CC2)C(=O)O)C(C)(C)O)NC(=O)[C@H](Cc2ccc(O)cc2)NC(=O)[C@H](C(C)C)NC(=O)[C@H](CC(=O)O)NC(=O)[C@H](CC2CCOCC2)NC(=O)[C@H](CCN)NC(=O)CNC(=O)[C@H](C(C)(C)C)NC1=O [compound 371, Ac-hLeu-Y-C-Tbg-G-Dab-ThpA-D-V-Y-C-5FW-F-hydroxyVal-dLys(DOTA)-COOH] (Ac-[hLeu]YC[Tle]G[Dab][Ala(4-THP)]DVYC[Trp(5-F)]F[Val(3-OH)][dK](DOTA)-OH; disulfide 3-11) | B (25<%≤50) | A (%≤25) | – | > 9.00 | – | – |
| CC(=O)N[C@@H](CCC(C)C)C(=O)N[C@@H](Cc1ccc(O)cc1)C(=O)N[C@H]1CSSC[C@@H](C(=O)N[C@@H](Cc2c[nH]c3ccc(F)cc23)C(=O)N[C@@H](Cc2ccccc2)C(=O)N[C@H](C(=O)N[C@H](CCCCNC(=O)CN2CCN(CC(=O)O)CCN(CC(=O)O)CCN(CC(=O)O)CC2)C(N)=O)[C@@H](C)O)NC(=O)[C@H](Cc2ccc(O)cc2)NC(=O)[C@H](C(C)C)NC(=O)[C@H](CC(=O)O)NC(=O)[C@H](Cc2ccc(O)cc2)NC(=O)[C@H](CCCCN)NC(=O)CNC(=O)[C@H](C(C)C)NC1=O [compound 73, Ac-hLeu-Y-C-V-G-K-Y-D-V-Y-C-5FW-F-Thr-dLys(DOTA)-CONH2] (Ac-[hLeu]YCVGKYDVYC[Trp(5-F)]FT[dK](DOTA)-NH2; disulfide 3-11) | C (%>50) | A (%≤25) | – | – | > 9.00 | – |
| CC(=O)N[C@@H](CCC(C)C)C(=O)N[C@@H](Cc1ccc(O)cc1)C(=O)N[C@H]1CSSC[C@@H](C(=O)N[C@@H](Cc2c[nH]c3ccc(F)cc23)C(=O)N[C@@H](Cc2ccccc2)C(=O)N[C@H](C(N)=O)C(C)(C)O)NC(=O)[C@H](Cc2ccc(O)cc2)NC(=O)[C@H](C(C)C)NC(=O)[C@H](CC(=O)O)NC(=O)[C@H](CC2CCOCC2)NC(=O)[C@H](CCCCNC(=O)CN2CCN(CC(=O)O)CCN(CC(=O)O)CCN(CC(=O)O)CC2)NC(=O)CNC(=O)[C@H](C(C)(C)C)NC1=O [compound 338, Ac-hLeu-Y-C-Tbg-G-Lys(DOTA)-ThpA-D-V-Y-C-5FW-F-hydroxyVal-CONH2] (Ac-[hLeu]YC[Tle]GK(DOTA)[Ala(4-THP)]DVYC[Trp(5-F)]F[Val(3-OH)]-NH2; disulfide 3-11) | B (25<%≤50) | A (%≤25) | 8.00 to 9.00 | – | – | – |
| CC(=O)N[C@@H](CCC(C)C)C(=O)N[C@@H](Cc1ccc(O)cc1)C(=O)N[C@H]1CSSC[C@@H](C(=O)N[C@@H](Cc2c[nH]c3ccc(F)cc23)C(=O)N[C@@H](Cc2ccccc2)C(=O)N[C@H](C(=O)N[C@H](CCCCNC(=O)[C@H](CCCC(=O)O)NC(=O)CN2CCN(CC(=O)O)CCN(CC(=O)O)CCN(CC(=O)O)CC2)C(=O)O)C(C)(C)O)NC(=O)[C@H](Cc2ccc(O)cc2)NC(=O)[C@H](C(C)C)NC(=O)[C@H](CC(=O)O)NC(=O)[C@H](CC2CCOCC2)NC(=O)[C@H](CC2CCNCC2)NC(=O)CNC(=O)[C@H](C(C)(C)C)NC1=O [compound 464, Ac-hLeu-Y-C-Tbg-G-PipAla-ThpA-D-V-Y-C-5FW-F-hydroxyVal-dLys(hGlu-DOTA)-COOH] (Ac-[hLeu]YC[Tle]G[Ala(piperidin-4-yl)][Ala(4-THP)]DVYC[Trp(5-F)]F[Val(3-OH)][dK]([Aad-DOTA])-OH; disulfide 3-11) | C (%>50) | A (%≤25) | > 9.00 | – | – | – |
| CC(=O)N[C@@H](CCC(C)C)C(=O)N[C@@H](Cc1ccc(O)cc1)C(=O)N[C@H]1CSSC[C@@H](C(=O)N[C@@H](Cc2c[nH]c3ccc(F)cc23)C(=O)N[C@@H](Cc2ccccc2)C(=O)N[C@H](C(=O)N[C@H](CCCCNC(=O)CCOCCOCCOCCOCCNC(=O)CN2CCN(CC(=O)O)CCN(CC(=O)O)CCN(CC(=O)O)CC2)C(=O)O)C(C)(C)O)NC(=O)[C@H](Cc2ccc(O)cc2)NC(=O)[C@H](C(C)C)NC(=O)[C@H](CC(=O)O)NC(=O)[C@H](CC2CCOCC2)NC(=O)[C@H](CC2CCNCC2)NC(=O)CNC(=O)[C@H](C(C)(C)C)NC1=O [compound 465, Ac-hLeu-Y-C-Tbg-G-PipAla-ThpA-D-V-Y-C-5FW-F-hydroxyVal-dLys(PEG4-DOTA)-COOH] (Ac-[hLeu]YC[Tle]G[Ala(piperidin-4-yl)][Ala(4-THP)]DVYC[Trp(5-F)]F[Val(3-OH)][dK]([PEG4-DOTA])-OH; disulfide 3-11) | B (25<%≤50) | A (%≤25) | > 9.00 | – | – | – |
| CC(=O)N[C@@H](CCC(C)C)C(=O)N[C@@H](Cc1ccc(O)cc1)C(=O)N[C@H]1CSSC[C@@H](C(=O)N[C@@H](Cc2c[nH]c3ccc(F)cc23)C(=O)N[C@@H](Cc2ccccc2)C(=O)N[C@H](C(=O)N[C@H](CCCCNC(=O)COCCOCCOCCOCCNC(=O)CN2CCN(CC(=O)O)CCN(CC(=O)O)CCN(CC(=O)O)CC2)C(=O)O)C(C)(C)O)NC(=O)[C@H](Cc2ccc(O)cc2)NC(=O)[C@H](C(C)C)NC(=O)[C@H](CC(=O)O)NC(=O)[C@H](CC2CCOCC2)NC(=O)[C@H](CCCCN)NC(=O)CNC(=O)[C@H](C(C)(C)C)NC1=O [compound 310, Ac-hLeu-Y-C-Tbg-G-K-ThpA-D-V-Y-C-5FW-F-hydroxyVal-dLys(PEG4-DOTA)-COOH] (Ac-[hLeu]YC[Tle]GK[Ala(4-THP)]DVYC[Trp(5-F)]F[Val(3-OH)][dK](X2)-OH; disulfide 3-11) | C (%>50) | B (25<%≤50) | – | > 9.00 | – | > 9.00 |
